# Source: patent US9156801B2, “2-substituted oleanolic acid derivative, method preparing for same, and application thereof” (HANGZHOU BENSHENG PHARMACEUTICAL CO., LTD., priority 2011, dated 2015)
# Key:
# NB4 cell line = assay: leukemia cell growth inhibition, MTT; format: cell-based; conditions: Homo sapiens, NB-4; for inhibition at 16 µg/mL: NB4, 16 μg/mL compound, 72 h, read-out: IR (cell proliferation inhibition rate); for IC50: NB4, 72 h
# Text: (§1) Leukemia cell lines: leukemia cell lines: K562/adr (drug-resistant, chronic myeloid leukemia, CML), NB4 (acute promyelocytic leukemia, AML), Kasumi-1 (acute myeloid leukemia M2 type, AML-M2), Jurkat (acute lymphoblastic leukemia, ALL), all of which are donated by Cancer Research Institute of Zhejiang University, China; and H9 (acute lymphoblastic leukemia, ALL), which is purchased from China Center for Type Culture Collection (CCTCC).
# (§2) Obtaining 6000 well-growing leukemia cells and inoculating them into wells of a 96-well cell culture plate. The culture medium is the 1640 cell culture medium containing 10% fetal bovine serum. After adding the 2-substituted oleanolic acid derivatives of different concentrations and mixing uniformly, placing the plate in a carbon dioxide cell incubator (5% CO2) at 37° C. and incubated for 72 hours. Then the relative number of viable cells is determined by MTT method. In this experiment, cell proliferation inhibition rate in control group (not treated with any compound) is set as 0%.
# Kasumi-1 cell line = assay: leukemia cell growth inhibition, MTT; format: cell-based; conditions: Homo sapiens; for inhibition at 16 µg/mL: Kasumi-1, 16 μg/mL compound, 72 h, read-out: IR (cell proliferation inhibition rate); for IC50: Kasumi-1, 72 h
# Text: as §1, §2
# Jurkat cell line = assay: leukemia cell growth inhibition, MTT; format: cell-based; conditions: Homo sapiens, 72 h; for inhibition at 16 µg/mL: 16 μg/mL compound, read-out: IR (cell proliferation inhibition rate)
# Text: as §1, §2
# H9 cell line = assay: leukemia cell growth inhibition, MTT; format: cell-based; conditions: Homo sapiens; for IC50: H9, 72 h; for inhibition at 16 µg/mL: H9, 16 μg/mL compound, 72 h, read-out: IR (cell proliferation inhibition rate)
# Text: as §1, §2
# K562/adr cell line = assay: leukemia cell growth inhibition, MTT; format: cell-based; conditions: Homo sapiens, 72 h; for IC50: K562/Adr; for inhibition at 16 µg/mL: K562/adr, 16 μg/mL compound, read-out: IR (cell proliferation inhibition rate)
# Text: as §1, §2
# RPMI8226 cell line = assay: multiple myeloma cell growth inhibition, MTT; format: cell-based; conditions: Homo sapiens, RPMI-8226; for inhibition at 16 µg/mL: RPMI8226, 16 μg/mL compound, 72 h, read-out: IR (cell proliferation inhibition rate); for IC50: RPMI8226, 72 h
# Protocol: Multiple myeloma cell lines: RPMI8226 (multiple myeloma), purchased from Fuxiang Bio-tech Co. Ltd., Shanghai, China.
# Obtaining 6000 well-growing cells as above and inoculating them into wells of a 96-well cell culture plate. The culture medium is the 1640 cell culture medium containing 10% fetal bovine serum. After adding the 2-substituted oleanolic acid derivatives of different concentrations and mixing uniformly, placing the plate in a carbon dioxide cell incubator (5% CO2) at 37° C. and incubated for 72 hours. Then the relative number of viable cells is determined by MTT method. In this experiment, cell proliferation inhibition rate in control group (not treated with any compound) is set as 0%.
# MG-63 cell line = assay: solid tumor cell growth inhibition, MTT; format: cell-based; conditions: Homo sapiens; for IC50: MG-63, 72 h; for inhibition at 16 µg/mL: MG-63, 16 μg/mL compound, 72 h, read-out: IR (cell proliferation inhibition rate)
# Protocol: (§3) Hep-2 (laryngeal carcinoma), A549 (human lung cancer), CaES-17 (esophageal cancer cell), PC-3 (prostate cancer), CNE (nasopharyngeal carcinoma cell), and SK-OV-3 (ovarian cancer cell), all of which are purchased from China Center For Type Culture Collection; RKO (human colon adenocarcinoma cell), MGC 803 (human gastric cancer cell), MG63 (osteosarcoma) and U87 MG (malignant glioma cell), all of which are purchased from Fuxiang Bio-tech Co. Ltd., Shanghai, China; PANC-1 (pancreatic cancer), Hep G2 (human liver cancer cell), Becap37 (human breast cancer cell), and Hela (human cervical cancer cell), all of which are donated by Cancer Research Institute of Zhejiang University, China.
# (§4) Obtaining 4000 well-growing human solid tumor cells and inoculating them into wells of a 96-well cell culture plate. The culture medium is DMEM High Glucose cell culture medium containing 10% fetal bovine serum. The plate is placed in a carbon dioxide cell incubator (5% CO2) at 37° C. for 24 hours. After adding the 2-substituted oleanolic acid derivatives of different concentrations and mixing uniformly, the plate is placed in a carbon dioxide cell incubator (5% CO2) at 37° C. and incubated for 72 hours. Then the relative number of the living cells is determined by MTT method. In this experiment, the cell proliferation inhibition rate in control group (not treated with any compound) is set as 0%.
# Becap37 cell line = assay: solid tumor cell growth inhibition, MTT; format: cell-based; conditions: Homo sapiens; for inhibition at 16 µg/mL: Becap37, 16 μg/mL compound, 72 h, read-out: IR (cell proliferation inhibition rate); for IC50: Becap37, 72 h
# Protocol: as §3, §4
# A549 cell line = assay: solid tumor cell growth inhibition, MTT; format: cell-based; conditions: Homo sapiens; for IC50: A549, 72 h; for inhibition at 16 µg/mL: A549, 16 μg/mL compound, 72 h, read-out: IR (cell proliferation inhibition rate)
# Protocol: as §3, §4
# Hep-2 cell line = assay: solid tumor cell growth inhibition, MTT; format: cell-based; conditions: Homo sapiens; for IC50: HEp-2, 72 h; for inhibition at 16 µg/mL: Hep-2, 16 μg/mL compound, 72 h, read-out: IR (cell proliferation inhibition rate)
# Protocol: as §3, §4
# PANC-1 cell line = assay: solid tumor cell growth inhibition, MTT; format: cell-based; conditions: Homo sapiens; for IC50: PANC-1, 72 h; for inhibition at 16 µg/mL: PANC-1, 16 μg/mL compound, 72 h, read-out: IR (cell proliferation inhibition rate)
# Protocol: as §3, §4
# Hela cell line = assay: solid tumor cell growth inhibition, MTT; format: cell-based; conditions: Homo sapiens, 72 h; for IC50: HeLa; for inhibition at 16 µg/mL: Hela, 16 μg/mL compound, read-out: IR (cell proliferation inhibition rate)
# Protocol: as §3, §4
# SK-OV-3 cell line = assay: solid tumor cell growth inhibition, MTT; format: cell-based; conditions: Homo sapiens; for IC50: SK-OV-3, 72 h; for inhibition at 16 µg/mL: SK-OV-3, 16 μg/mL compound, 72 h, read-out: IR (cell proliferation inhibition rate)
# Protocol: as §3, §4
# PC-3 cell line = assay: solid tumor cell growth inhibition, MTT; format: cell-based; conditions: Homo sapiens; for IC50: PC-3, 72 h; for inhibition at 16 µg/mL: PC-3, 16 μg/mL compound, 72 h, read-out: IR (cell proliferation inhibition rate)
# Protocol: as §3, §4
# RKO cell line = assay: solid tumor cell growth inhibition, MTT; format: cell-based; conditions: Homo sapiens, 72 h; for inhibition at 16 µg/mL: 16 μg/mL compound, read-out: IR (cell proliferation inhibition rate)
# Protocol: as §3, §4
# CNE cell line = assay: solid tumor cell growth inhibition, MTT; format: cell-based; conditions: Homo sapiens, 72 h; for inhibition at 16 µg/mL: 16 μg/mL compound, read-out: IR (cell proliferation inhibition rate)
# Protocol: as §3, §4
# U87 MG cell line = assay: solid tumor cell growth inhibition, MTT; format: cell-based; conditions: Homo sapiens, U-87 MG, 72 h; for inhibition at 16 µg/mL: 16 μg/mL compound, read-out: IR (cell proliferation inhibition rate)
# Protocol: as §3, §4
# MGC 803 cell line = assay: solid tumor cell growth inhibition, MTT; format: cell-based; conditions: Homo sapiens; for inhibition at 16 µg/mL: MGC 803, 16 μg/mL compound, 72 h, read-out: IR (cell proliferation inhibition rate); for IC50: MGC 803, 72 h
# Protocol: as §3, §4
# CaES-17 cell line = assay: solid tumor cell growth inhibition, MTT; format: cell-based; conditions: Homo sapiens, CaEs17; for inhibition at 16 µg/mL: CaES-17, 16 μg/mL compound, 72 h, read-out: IR (cell proliferation inhibition rate); for IC50: CaES-17, 72 h
# Protocol: as §3, §4
# Hep G2 cell line = assay: solid tumor cell growth inhibition, MTT; format: cell-based, human; conditions: Homo sapiens; for inhibition at 16 µg/mL: HepG2, 72 h, Hep G2, 16 μg/mL compound, 72 h, read-out: IR (cell proliferation inhibition rate); for IC50: HepG2, Hep G2, 72 h
# Protocol: as §3, §4
SMILES,inhibition at 16 µg/mL (NB4 cell line),IC50 (NB4 cell line),inhibition at 16 µg/mL (Kasumi-1 cell line),IC50 (Kasumi-1 cell line),inhibition at 16 µg/mL (Jurkat cell line),IC50 (Jurkat cell line),IC50 (H9 cell line),inhibition at 16 µg/mL (H9 cell line),IC50 (K562/adr cell line),inhibition at 16 µg/mL (K562/adr cell line),inhibition at 16 µg/mL (RPMI8226 cell line),IC50 (RPMI8226 cell line),IC50 (MG-63 cell line),inhibition at 16 µg/mL (MG-63 cell line),inhibition at 16 µg/mL (Becap37 cell line),IC50 (Becap37 cell line),IC50 (A549 cell line),inhibition at 16 µg/mL (A549 cell line),IC50 (Hep-2 cell line),inhibition at 16 µg/mL (Hep-2 cell line),other results
CCC(C)CNC(=O)C1C[C@@]2(C)C(CC[C@]3(C)C2CC=C2C4CC(C)(C)CC[C@]4(C(=O)OC)CC[C@]23C)C(C)(C)C1=O (some centres unmarked) [BS-OA-008],6.3%,> 16 µg/mL,6.7%,> 16 µg/mL,-33.8%,> 16 µg/mL,> 16 µg/mL,39.8%,8 µg/mL,70.1%,30%,> 16 µg/mL,> 16 µg/mL,-12.1%,2.3%,> 16 µg/mL,> 16 µg/mL,3.4%,> 16 µg/mL,3.5%,IC50 (PANC-1 cell line): > 16 µg/mL; inhibition at 16 µg/mL (PANC-1 cell line): -4.6%; IC50 (Hela cell line): > 16 µg/mL; inhibition at 16 µg/mL (Hela cell line): 0.5%; IC50 (SK-OV-3 cell line): > 16 µg/mL; inhibition at 16 µg/mL (SK-OV-3 cell line): 14.3%; IC50 (PC-3 cell line): > 16 µg/mL; inhibition at 16 µg/mL (PC-3 cell line): 12%; inhibition at 16 µg/mL (RKO cell line): -18.6%; IC50 (RKO cell line): > 16 µg/mL; inhibition at 16 µg/mL (CNE cell line): 15.1%; IC50 (CNE cell line): > 16 µg/mL; inhibition at 16 µg/mL (U87 MG cell line): 30.1%; IC50 (U87 MG cell line): > 16 µg/mL; inhibition at 16 µg/mL (MGC 803 cell line): -12.4%; IC50 (MGC 803 cell line): > 16 µg/mL; inhibition at 16 µg/mL (CaES-17 cell line): -12.7%; IC50 (CaES-17 cell line): > 16 µg/mL; inhibition at 16 µg/mL (Hep G2 cell line): 8.1%; IC50 (Hep G2 cell line): > 16 µg/mL
COC(=O)[C@]12CCC(C)(C)CC1C1=CCC3[C@@]4(C)CC(C(=O)NCCc5cccnc5)C(=O)C(C)(C)C4CC[C@@]3(C)[C@]1(C)CC2 (some centres unmarked) [BS-OA-027],93.8%,4.57 µg/mL,72.2%,12.4 µg/mL,83.4%,9.85 µg/mL,7.72 µg/mL,92.5%,3.7 µg/mL,82.6%,86.5%,6.1 µg/mL,> 16 µg/mL,25.4%,34.3%,> 16 µg/mL,> 16 µg/mL,45.6%,> 16 µg/mL,35.5%,IC50 (PANC-1 cell line): > 16 µg/mL; inhibition at 16 µg/mL (PANC-1 cell line): 36.9%; IC50 (Hela cell line): 10.8 µg/mL; inhibition at 16 µg/mL (Hela cell line): 62%; IC50 (SK-OV-3 cell line): 6.63 µg/mL; inhibition at 16 µg/mL (SK-OV-3 cell line): 91.6%; IC50 (PC-3 cell line): 7.79 µg/mL; inhibition at 16 µg/mL (PC-3 cell line): 68.9%; inhibition at 16 µg/mL (RKO cell line): 46.8%; IC50 (RKO cell line): 16 µg/mL; inhibition at 16 µg/mL (CNE cell line): 51.3%; IC50 (CNE cell line): 15.6 µg/mL; inhibition at 16 µg/mL (U87 MG cell line): 48.7%; IC50 (U87 MG cell line): 16 µg/mL; inhibition at 16 µg/mL (MGC 803 cell line): 80.1%; IC50 (MGC 803 cell line): 9.96 µg/mL; inhibition at 16 µg/mL (CaES-17 cell line): 49.5%; IC50 (CaES-17 cell line): 17 µg/mL; inhibition at 16 µg/mL (Hep G2 cell line): 51.4%; IC50 (Hep G2 cell line): 15.6 µg/mL
